“Also recorded” adds a separate entry of the source.
Experiments:
[1] = Safety and tolerability in patients with relapsed and refractory B cell malignancies; assay type: in vivo; settings: for Anemia, Grade ≥ 3 / Clostridium difficile colitis, Grade ≥ 3 / Clostridium difficile infection, Grade ≥ 3 / Cognitive disorder, Grade ≥ 3 / Dyspnea, Grade ≥ 3 / Hypertension, Grade ≥ 3 / Neutropenia, Grade ≥ 3 / Pain in extremity, Grade ≥ 3 / Upper resp. tract infection, Grade ≥ 3: all patients
Experimental: (§1) Compound 149 was administered to human patients in a Phase 1a/lb trial investigating safety and tolerability in relapsed and refractory B cell malignancies. Compound 149 was administered as a once daily oral dose first in an accelerated Phase 1a dose escalation starting at 100 mg on Day 1. The first dose levels are explored in a single patient cohort until a grade 2 adverse event has been observed. Thereafter, a traditional 3+3 escalation design is used. This 100 mg starting dose was predicted to provide similar exposure as that observed in non-human primate studies. Once a dose is selected based on all safety, efficacy, pharmacokinetic, and pharmacodynamic data available, the trial will expand in up to five expansion cohorts.
(§2) Patients were treated at four different dosage levels of Compound 149: dose level 1 (100 mg), dose level 2 (200 mg), dose level 3 (300 mg), and dose level 4 (400 mg). The objective of the study was to assess safety and tolerability, to identify maximum tolerated dose, and to evaluate PK/PD.
Safety population included 19 subjects, and data is summarize in Table 6 below. Two subjects were assigned to the 100 mg cohort but treatment was not entered in the electronic data capture (EDC) at time of extract.

[2] = Plasma concentrations of compound 149 after once daily oral dosing; assay type: in vivo, human; settings: all patients, once daily oral 100 mg or 200 mg
Experimental: as §1

[3] = biological target: T1, Ikaros (Homo sapiens, UniProt Q13422+Q96SW2); experiment: Ikaros degradation in the patient; assay type: in vivo; settings: DLBCL patient, 300 mg
T1 construct: peripheral blood was obtained from all patients for baseline and post Compound 149 therapy assessment of BTK and Ikaros degradation; endogenous in cells; host or cells: peripheral blood cells of a DLBCL patient
T1 sequence (Q13422 whole entry): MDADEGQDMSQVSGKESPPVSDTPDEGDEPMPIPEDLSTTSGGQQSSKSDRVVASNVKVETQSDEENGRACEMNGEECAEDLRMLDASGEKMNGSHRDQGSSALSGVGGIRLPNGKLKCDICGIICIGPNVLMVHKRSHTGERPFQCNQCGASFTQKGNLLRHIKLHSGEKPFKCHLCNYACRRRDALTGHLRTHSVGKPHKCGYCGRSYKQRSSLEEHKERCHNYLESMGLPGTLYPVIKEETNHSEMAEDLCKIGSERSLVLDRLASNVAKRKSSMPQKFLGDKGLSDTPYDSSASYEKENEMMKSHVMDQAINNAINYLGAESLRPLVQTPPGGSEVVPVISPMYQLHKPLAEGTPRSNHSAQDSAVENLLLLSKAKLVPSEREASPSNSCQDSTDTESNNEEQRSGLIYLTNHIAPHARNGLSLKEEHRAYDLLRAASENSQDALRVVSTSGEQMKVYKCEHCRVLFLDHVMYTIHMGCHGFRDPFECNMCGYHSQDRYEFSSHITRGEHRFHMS
T1 sequence (Q96SW2 whole entry): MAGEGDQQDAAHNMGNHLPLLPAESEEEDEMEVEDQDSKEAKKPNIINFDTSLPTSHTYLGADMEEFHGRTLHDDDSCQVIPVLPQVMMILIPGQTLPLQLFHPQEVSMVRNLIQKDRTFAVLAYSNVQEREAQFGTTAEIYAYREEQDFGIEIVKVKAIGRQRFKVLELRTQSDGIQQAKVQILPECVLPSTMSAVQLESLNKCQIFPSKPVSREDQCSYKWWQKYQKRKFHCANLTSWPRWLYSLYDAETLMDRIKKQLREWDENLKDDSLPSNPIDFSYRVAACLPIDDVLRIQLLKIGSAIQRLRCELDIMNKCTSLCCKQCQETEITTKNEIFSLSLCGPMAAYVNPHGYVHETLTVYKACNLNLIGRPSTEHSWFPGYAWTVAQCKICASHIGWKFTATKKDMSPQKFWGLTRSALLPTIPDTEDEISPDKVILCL
T1 sequence (Q16531 whole entry partner): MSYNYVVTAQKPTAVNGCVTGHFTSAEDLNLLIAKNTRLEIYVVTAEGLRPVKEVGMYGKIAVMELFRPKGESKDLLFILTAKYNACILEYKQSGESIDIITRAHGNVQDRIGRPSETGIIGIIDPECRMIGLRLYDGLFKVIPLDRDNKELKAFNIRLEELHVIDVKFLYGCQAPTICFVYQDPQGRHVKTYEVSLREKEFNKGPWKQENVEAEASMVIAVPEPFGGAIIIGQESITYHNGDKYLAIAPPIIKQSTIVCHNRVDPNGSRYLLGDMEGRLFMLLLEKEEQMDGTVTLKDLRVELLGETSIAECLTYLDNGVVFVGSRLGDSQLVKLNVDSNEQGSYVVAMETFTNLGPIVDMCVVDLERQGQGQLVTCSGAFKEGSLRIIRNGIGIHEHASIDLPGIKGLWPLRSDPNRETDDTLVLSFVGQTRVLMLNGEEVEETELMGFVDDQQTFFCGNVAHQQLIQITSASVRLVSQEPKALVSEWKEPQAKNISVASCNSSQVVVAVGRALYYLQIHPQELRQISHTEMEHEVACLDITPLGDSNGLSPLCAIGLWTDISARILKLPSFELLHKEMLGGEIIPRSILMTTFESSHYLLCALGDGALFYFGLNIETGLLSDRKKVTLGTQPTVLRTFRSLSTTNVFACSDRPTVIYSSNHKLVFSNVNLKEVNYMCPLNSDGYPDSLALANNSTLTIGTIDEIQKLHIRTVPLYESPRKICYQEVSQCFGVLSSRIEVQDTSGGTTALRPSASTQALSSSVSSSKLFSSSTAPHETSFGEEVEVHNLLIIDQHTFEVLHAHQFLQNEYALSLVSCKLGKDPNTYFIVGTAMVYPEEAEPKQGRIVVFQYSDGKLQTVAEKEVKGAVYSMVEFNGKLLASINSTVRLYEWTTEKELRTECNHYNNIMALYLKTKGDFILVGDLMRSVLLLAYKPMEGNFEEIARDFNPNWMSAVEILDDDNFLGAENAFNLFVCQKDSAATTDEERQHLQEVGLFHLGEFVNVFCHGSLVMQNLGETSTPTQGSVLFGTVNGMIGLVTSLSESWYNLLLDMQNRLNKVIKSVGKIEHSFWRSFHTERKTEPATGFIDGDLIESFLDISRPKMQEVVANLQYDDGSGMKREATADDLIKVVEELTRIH
Experimental: Following informed consent, peripheral blood was obtained from all patients for baseline and post Compound 149 therapy assessment of BTK and Ikaros degradation. Patient blood (5 mL) was drawn and immediately fixed in a 5 mL CytoChex™ BCT tube and stored at ambient temperature until assessment via flow cytometry. Blood samples were analyzed within 3 days post sample collection at Precision for Medicine. Additional blood was also drawn into 8 mL BD Vacutainer® CPT™ Cell Preparation Tube with Sodium Citrate. Peripheral blood mononuclear cells (PBMCs) were processed, and viability frozen according to manufacturer's protocol. The patient's response was checked at 8 weeks and 16 weeks. […] Gradual BTK degradation was observed until day 8 day of receiving the 300 mg dose of Compound 149, wherein the maximum BTK degradation was achieved on the 8th day. Consistent with its design, Compound 149 also degraded Ikaros and Aiolos which is responsible for the compound's immunomodulatory activity. […] In the 16-week assessment image, maximum standard uptake value (Max SUV) reduced from 17.6 at screening to 2.5 at the 16-week assessment time with the Deauville five-point scale (5PS; Barrington et al., 2010, Eur J Nucl Med Mol Imaging 37 (10): 1824-33) reducing from 5 to 2.

[4] = test system: novel BTK mutations emerging post BTKi-treatment; experiment: Degradation of novel BTK mutations emerging post BTKi-treatment (FIG. 6); assay type: cell-based; settings: multiple novel BTK mutations emerging post BTKi-treatment
[5] = test system: patients with CLL; experiment: Efficacy evaluations in CLL patients; assay type: in vivo, human
Experimental: as §2
Patients evaluated in this study were treated for diseases or disorders selected from the group consisting of: chronic lymphocytic leukemia (CLL) with BTK C481 mutation (n 20); CLL without BTK C481 mutation (n˜20); mantle cell lymphoma (MCL), marginal zone lymphoma (MZL), Waldenstrom's macroglobulinemia (WM) (n˜20); follicular lymphoma (FL) (n˜20); and diffuse large B cell lymphoma (DLBCL) (n˜20). Heavily pretreated patient population, including double-refractory CLL patients.
Data shown in FIG. 6 confirms that Compound 149 is a potent BTK degrader to solve inhibitor resistance observed with prior therapy.

NC(=O)c1ncc(N2CCCCC2)nc1Nc1ccc(C2CCN(C[C@@H]3CCN(c4ccc5c(c4)C(=O)N(C4CCC(=O)NC4=O)C5=O)C3)CC2)cc1 (stereo partly shown) [Compound 149]
Anemia, Grade ≥ 3 ([1]; 100 mg (N = 10)): 1 (10%) n (%) | Clostridium difficile colitis, Grade ≥ 3 ([1]; 100 mg (N = 10)): 0 (0%) n (%) | Clostridium difficile infection, Grade ≥ 3 ([1]; 100 mg (N = 10)): 0 (0%) n (%) | Cognitive disorder, Grade ≥ 3 ([1]; 100 mg (N = 10)): 0 (0%) n (%) | Dyspnea, Grade ≥ 3 ([1]; 100 mg (N = 10)): 0 (0%) n (%) | Hypertension, Grade ≥ 3 ([1]; 100 mg (N = 10)): 0 (0%) n (%) | Neutropenia, Grade ≥ 3 ([1]; 100 mg (N = 10)): 1 (10%) n (%) | Pain in extremity, Grade ≥ 3 ([1]; 100 mg (N = 10)): 0 (0%) n (%) | Upper resp. tract infection, Grade ≥ 3 ([1]; 100 mg (N = 10)): 0 (0%) n (%) | Anemia, Grade ≥ 3 ([1]; 200 mg (N = 6)): 1 (16.7%) n (%) | Clostridium difficile colitis, Grade ≥ 3 ([1]; 200 mg (N = 6)): 1 (16.7%) n (%) | Clostridium difficile infection, Grade ≥ 3 ([1]; 200 mg (N = 6)): 1 (16.7%) n (%) | Cognitive disorder, Grade ≥ 3 ([1]; 200 mg (N = 6)): 0 (0%) n (%) | Dyspnea, Grade ≥ 3 ([1]; 200 mg (N = 6)): 1 (16.7%) n (%) | Hypertension, Grade ≥ 3 ([1]; 200 mg (N = 6)): 1 (16.7%) n (%) | Neutropenia, Grade ≥ 3 ([1]; 200 mg (N = 6)): 3 (50%) n (%) | Pain in extremity, Grade ≥ 3 ([1]; 200 mg (N = 6)): 0 (0%) n (%) | Upper resp. tract infection, Grade ≥ 3 ([1]; 200 mg (N = 6)): 1 (16.7%) n (%) | Anemia, Grade ≥ 3 ([1]; 300 mg (N = 3)): 0 (0%) n (%) | Clostridium difficile colitis, Grade ≥ 3 ([1]; 300 mg (N = 3)): 0 (0%) n (%) | Clostridium difficile infection, Grade ≥ 3 ([1]; 300 mg (N = 3)): 0 (0%) n (%) | Cognitive disorder, Grade ≥ 3 ([1]; 300 mg (N = 3)): 1 (33.3%) n (%) | Dyspnea, Grade ≥ 3 ([1]; 300 mg (N = 3)): 0 (0%) n (%) | Hypertension, Grade ≥ 3 ([1]; 300 mg (N = 3)): 0 (0%) n (%) | Neutropenia, Grade ≥ 3 ([1]; 300 mg (N = 3)): 2 (66.7%) n (%) | Pain in extremity, Grade ≥ 3 ([1]; 300 mg (N = 3)): 1 (33.3%) n (%) | Upper resp. tract infection, Grade ≥ 3 ([1]; 300 mg (N = 3)): 0 (0%) n (%) | dose limiting toxicity ([1]; 300 mg, a CLL patient, cognitive AE believed related to immunomodulatory activity): Dose limiting toxicity was observed | dose limiting toxicity (DLT) or serious adverse event (SAE) ([1]; DLBCL patient, 300 mg, 5 months and ongoing): no dose limiting toxicity (DLT) or serious adverse event (SAE) was observed | atrial fibrillation adverse events ([1]; at 100 mg in a patient with MCL and at 200 mg in a patient with CLL): Two AEs of lower grade atrial fibrillation were observed | tolerability / dose limiting toxicities ([1]; humans, 100 mg and 200 mg per dose): well-tolerated with no dose limiting toxicities | steady state plasma concentrations achieved by [2]: ≤ 8 days | Ikaros degradation [3]: degraded | degradation of mutant BTK [4]: degrades multiple novel BTK mutations emerging post BTKi-treatment | clinical activity / benefit in CLL patients ([5]; CLL patients with prior therapy (median of six prior treatments), 100 mg, FIG. 4): durable benefit; also recorded: showed clinical activity | nodal reductions and/or lymphocytosis ([5]; all evaluable CLL patients, FIG. 5): nodal reductions and/or lymphocytosis observed in all patients treated | responses in BTK inhibitor-resistant CLL patients ([5]; evaluable CLL patients, FIG. 5): responses in patients with resistance mutations to covalent and non-covalent BTK inhibitors

From patent US12377106B2, “Piperidinylpyrazine-carboxamide compounds for treating and preventing cancer and for degrading BTK” (NURIX THERAPEUTICS, INC., priority 2021, dated 2025)
